Measurements taken from patent publication US20230036854A1, “HETEROCYCLIC SPIRO-COMPOUNDS AS AM2 RECEPTOR INHIBITORS” (THE UNIVERSITY OF SHEFFIELD, priority 2018, published 2023).

target: T1, AM2 receptor (1321N1 cells transfected with CALCRL+RAMP3) (Homo sapiens, UniProt O60896+Q16602); test: AM2 receptor inhibition, LANCE cAMP agonist-antagonist competition assay; assay type: cell-based; settings: inhibition of AM induced cAMP activation, read-out: AM2 D2 protocol: pIC50 (converted)
T1 construct: host or cells: 1321N1 cells
T1 sequence (Q16602 23-461): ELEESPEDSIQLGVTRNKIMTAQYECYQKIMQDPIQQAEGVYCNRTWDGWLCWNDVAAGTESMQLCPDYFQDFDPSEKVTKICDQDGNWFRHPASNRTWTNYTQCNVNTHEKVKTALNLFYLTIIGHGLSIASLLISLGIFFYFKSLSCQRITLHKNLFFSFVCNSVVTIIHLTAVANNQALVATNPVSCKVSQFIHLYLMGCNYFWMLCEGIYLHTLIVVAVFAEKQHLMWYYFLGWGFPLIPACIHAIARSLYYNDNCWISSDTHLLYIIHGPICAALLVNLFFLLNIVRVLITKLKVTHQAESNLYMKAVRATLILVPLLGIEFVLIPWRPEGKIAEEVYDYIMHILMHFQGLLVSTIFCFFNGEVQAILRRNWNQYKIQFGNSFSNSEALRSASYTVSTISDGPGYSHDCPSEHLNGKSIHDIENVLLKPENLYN
T1 sequence (O60896 24-148): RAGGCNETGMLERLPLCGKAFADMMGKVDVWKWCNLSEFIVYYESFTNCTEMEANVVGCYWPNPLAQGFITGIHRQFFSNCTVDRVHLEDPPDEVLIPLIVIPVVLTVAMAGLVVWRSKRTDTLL
In short: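 1321N1 cells co-expressing CALCRL and RAMP3 (2500/well) were preincubated with compound for 30 min at room temperature, then stimulated with adrenomedullin at its EC50 dose for 15 min in HBSS/HEPES/BSA buffer, pH 7.4. cAMP was measured by LANCE TR-FRET and normalised to forskolin (100%) and vehicle (0%) controls.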

| IC50 [nM] | SMILES |
| --- | --- |
| 8.71 | CCC1(C(=O)N(CC(=O)Nc2ccc3c(c2)C[C@@]2(C3)C(=O)Nc3ncccc32)Cc2ccccc2CNC)CCN(C(=O)COCCOCCOCCOCCOCCOCCOC)CC1 [Example 97, (R)-1-(2,5,8,11,14,17,20-Heptaoxadocosan-22-oyl)-4-ethyl-N-(2-((methylamino)methyl)benzyl)-N-(2-oxo-2-((2′-oxo-1,1′,2′,3-tetrahydrospiro[indene-2,3′-pyrrolo[2,3-b]pyridin]-5-yl)amino)ethyl)piperidine-4-carboxamide] |
| 61.7 | CCC1(C(=O)N(CC(=O)Nc2ccc3c(c2)C[C@@]2(C3)C(=O)Nc3ncccc32)Cc2ccccc2CNC)CCN(C(=O)C(C)(C)C(F)(F)F)CC1 [Example 98, (R)-4-Ethyl-N-(2-((methylamino)methyl)benzyl)-N-(2-oxo-2-((2′-oxo-1,1′,2′,3-tetrahydrospiro[indene-2,3′-pyrrolo[2,3-b]pyridin]-5-yl)amino)ethyl)-1-(3,3,3-trifluoro-2,2-dimethylpropanoyl)piperidine-4-carboxamide] |
| 1.45 | CCC1(C(=O)N(CC(=O)Nc2ccc3c(c2)C[C@@]2(C3)C(=O)Nc3ncccc32)Cc2ccccc2CNC)CCN(C(=O)N(C)C)CC1 [Example 99, (R)-4-Ethyl-N1, N1-dimethyl-N4-(2-((methylamino)methyl)benzyl)-N4-(2-oxo-2-((2′-oxo-1,1′,2′,3-tetrahydrospiro[indene-2,3′-pyrrolo[2,3-b]pyridin]-5-yl)amino)ethyl)piperidine-1,4-dicarboxamide] |
| 4.07 | CCC1(C(=O)N(CC(=O)Nc2ccc3c(c2)C[C@@]2(C3)C(=O)Nc3ncccc32)Cc2ccccc2CNC)CCN(C(=O)NC)CC1 [Example 100] |
| 1.41 | CCC1(C(=O)N(CC(=O)Nc2ccc3c(c2)C[C@@]2(C3)C(=O)Nc3ncccc32)Cc2ccccc2CNC)CCN(C(=O)NC(C)C)CC1 [Example 101, (R)-4-Ethyl-N1-isopropyl-N4-(2-((methylamino)methyl)benzyl)-N4-(2-oxo-2-((2′-oxo-1,1′,2′,3-tetrahydrospiro[indene-2,3′-pyrrolo[2,3-b]pyridin]-5-yl)amino)ethyl)piperidine-1,4-dicarboxamide] |
| 6.92 | CCC1(C(=O)N(CC(=O)Nc2ccc3c(c2)C[C@@]2(C3)C(=O)Nc3ncccc32)Cc2ccccc2CNC)CCN(C(=O)N2CCCC2)CC1 [Example 102, (R)-4-Ethyl-N-(2-((methylamino)methyl)benzyl)-N-(2-oxo-2-((2′-oxo-1,1′,2′,3-tetrahydrospiro[indene-2,3′-pyrrolo[2,3-b]pyridin]-5-yl)amino)ethyl)-1-(pyrrolidine-1-carbonyl)piperidine-4-carboxamide] |
| 2.19 | CCC1(C(=O)N(CC(=O)Nc2ccc3c(c2)C[C@@]2(C3)C(=O)Nc3ncccc32)Cc2ccccc2CNC)CCN(C(=O)N2CCOCC2)CC1 [Example 103, (R)-4-Ethyl-N-(2-((methylamino)methyl)benzyl)-1-(morpholine-4-carbonyl)-N-(2-oxo-2-((2′-oxo-1,1′,2′,3-tetrahydrospiro[indene-2,3′-pyrrolo[2,3-b]pyridin]-5-yl)amino)ethyl)piperidine-4-carboxamide] |
| 107 | CCC1(C(=O)N(CC(=O)Nc2ccc3c(c2)C[C@@]2(C3)C(=O)Nc3ncccc32)Cc2ccccc2CNC)CCN(C(=O)N2CCCCC2)CC1 [Example 104, (R)-4-Ethyl-N-(2-((methylamino)methyl)benzyl)-N-(2-oxo-2-((2′-oxo-1,1′,2′,3-tetrahydrospiro[indene-2,3′-pyrrolo[2,3-b]pyridin]-5-yl)amino)ethyl)-1-(piperidine-1-carbonyl) piperidine-4-carboxamide] |
| 50.1 | CCC1(C(=O)N(CC(=O)Nc2ccc3c(c2)C[C@@]2(C3)C(=O)Nc3ncccc32)Cc2ccccc2CNC)CCN(C(=O)NC23CC(C2)C3)CC1 [Example 105] |
